Test results reported in patent US20080161389A1, “METHOD OF TREATING OCULAR HYPERTENSION AND INTESTINAL DISORDERS BY USING DIANHYDROHEXITE MONONITRATE DERIVATIVES” (LACER, S.A., priority 2006, published 2008).

Assays:
[1] = test system: Alfa-Chymotrypsin-Induced Glaucoma; assay: Intraocular pressure in alfa-chymotrypsin-induced glaucoma; type: in vivo, rabbits; conditions: for intraocular pressure 0 hr: 0 h after 3 drops instillation; for intraocular pressure 0 hr / intraocular pressure 1 hr / intraocular pressure 2 hr: rabbits with alpha-chymotrypsin-induced glaucoma; for reduction of intraocular pressure (in words): 0.05%, similar to conventional compound at 10-fold lower concentration; for intraocular pressure 1 hr: 1 h after 3 drops instillation; for intraocular pressure 2 hr: 2 h after 3 drops instillation
Description: The method used was that described by Gabriele Campana, Claudio Bucolo, Giovanna Murari and Santi Spampinato in Pharmacol. Exp Therap Vol. 303, Issue 3, 1086-1094, December 2002
Animals were injected with intra muscular injection of dexamethasone at the dose rate of 10 mg/Kg body weight, to avoid immediate inflammation. Animals were anesthetized with ketamine (50 mg/kg IV) in combination with Dizepam.
Xylocaine (4%) was used for local anesthesia topically. A cannula attached to reservoir was inserted into the anterior chamber with the help of a 30 gauge needle to provide a hydrostatic pressure of 25 mmHg during injection of alpha-chymotrypsin. Then a second appropriately shaped 30 gauge needle was introduced near the pupil. Freshly prepared 150 units of alpha chymotrypsin prepared in 0.1 ml of sterile saline was irrigated through the cannula into the posterior chamber. Care was taken to prevent the contact of alpha chymotrypsin with corneal stroma. Both cannulas were carefully removed without significant loss of aqueous humor. Immediately after surgery the eye treated with Sofracort (Corticosteroid) to reduce the chances of fungal or microbial infection.
All the animals were kept under observation for 5 days and after these five days the intraocular pressure (IOP) was measured daily with a Schiontz type indentation tonometer using 5.5 gm weights and by compilation of readings the maximum period required to achieve a stable increase in IOP was determined. […] IOP was measured after 15 days for 3 consecutive days, every morning (at same time) to assure stable IOP.
All the animals were closely observed for the development of glaucoma. Thirty animals showing the symptoms of glaucoma and with the intra ocular pressure more than 30 mmHg were selected for the present investigation.
Compounds 2-acetylthioisosorbide-5-mononitrate and 2-[(R)-methylsulfinyl]isosorbide-5-mononitrate (0.05%) were administered to two different groups of rabbits at a concentration of 0.05% by weight [0.05g in 100 mL of saline serum] by 3 drops instillation. For comparative data, the compound Timolol (Timoftol®) widely used for the treatment of glaucoma, was also administered to another group of rabbits at a concentration of 0.5% by weight.
The intraocular pressure measurements are included in the table 2 in mm Hg taken at 0, 1 and 2 h after 3 drops instillation.

duodenum = assay: Motor activity: spontaneous contractions recorded at duodenum, indomethacin-induced intestinal inflammation; type: in vivo; conditions: spontaneous contractions recorded at duodenum per minute, mice, 30 mg/kg orally
Description: (§1) Intestinal inflammation were induced by administration of two subcutaneous injections of 7.5 mg/kg indomethacin, as previously described Porras M., Martin M T., Soler M. and Vergara P., “Intestinal motor disorders associated with cyclical bacterial overgrowth in a rat model of enteritis”. Am. J. Physiol. Gastrointest. Liver Physiol. […] Am. J. Physiol. Gastrointest. Liver Physiol. (2006), 290:G423-G430.
(§2) Once the intestinal inflammation has been induced, one group of mice were treated with 30 mg of the compound 2-acetylthioisosorbide-5-mononitrate per kg of body weight, being dissolved this compound in water and administered orally. For comparative data, the compound isosorbide-5-mononitrate (IS-5-MN), structurally similar to 2-acetylthioisosorbide-5-mononitrate, was also administered to another group of mice.
(§3) Studies of the route, magnitude, and time course of bacterial translocation in a model of systemic inflammation were achieved as describe in Arch Surg 126:33-37, 1991. Bacterial translocation was expressed as the number of positive cultures with respect to the total number of samples in each group and motor activity was measured as the contracting activity expressed as the total number of spontaneous contractions recorded at duodenum per minute.

E. coli = assay: Bacterial translocation (E. coli) in indomethacin-induced intestinal inflammation; type: in vivo; conditions: mice; for Bacterial translocation E. coli: number of positive cultures / total number of samples in group, mesenteric lymph nodes, 30 mg/kg orally
Description: as §1, §2
(§4) Myeloperoxidase (MPO) activity was measured as an inflammation index in homogenized tissue samples after centrifugation using a specific ELISA kit (HyCult biotechnology, Uden, The Netherlands). In addition, since the barrier function of the intestinal mucus is deteriorated when the epithelium is inflamed and, as a consequence, the exposed bacteria cross the membrane and enter in the blood current, bacterial translocation was measured by detection of viable enteric bacteria in mesenteric lymph nodes as described by [M Mainous M R., Tso P., Berg R. D. and Deitch E. A., Arch Surg (1991) 126:33-37] as additional measure of inflammation degree.
as §3

Enterococcus sp = assay: Bacterial translocation (Enterococcus sp) in indomethacin-induced intestinal inflammation; type: in vivo; conditions: number of positive cultures / total number of samples in group, mesenteric lymph nodes, mice, 30 mg/kg orally
Description: as §1
Once the intestinal inflammation has been induced, one group of mice were treated with 30 mg of the compound 2-acetylthioisosorbide-5-mononitrate per kg of body weight, being dissolved this compound in water and administered orally. […]
as §4, with “degree. […]” for “degree.”

Myeloperoxidase (MPO) = Myeloperoxidase (MPO) activity as inflammation index in homogenized tissue samples (ELISA), indomethacin-induced intestinal inflammation; type: in vivo, mice; conditions: for MPO activity: homogenized tissue samples, mice, indomethacin-induced intestinal inflammation, 30 mg/kg orally
Description: as §1, §2, §4

SMILES	intraocular pressure 0 hr [1] [mm Hg]	reduction of intraocular pressure (in words) [1]	intraocular pressure 1 hr [1] [mm Hg]	intraocular pressure 2 hr [1] [mm Hg]	Contractions/min (duodenum) [Contractions/min]	bacterial translocation (in words) (E. coli)	Bacterial translocation E. coli (E. coli)	Bacterial translocation Enterococcus sp (Enterococcus sp)	reduction of MTO activity (in words) (Myeloperoxidase (MPO); compared to a structurally similar compound (IS-5-MN))	MPO activity (Myeloperoxidase (MPO)) [ng/mL]
C[S@@+]([O-])C1COC2C(O[N+](=O)[O-])COC21 (stereo partly drawn) [2-[(R)-methylsulfinyl]isosorbide-5-mononitrate]	33.87 ± 0.38	significantly reduce the intraocular pressure	23.51 ± 0.24	22.77 ± 0.19						
CC(=O)S[C@H]1CO[C@H]2[C@@H]1OC[C@H]2O[N+](=O)[O-] [2-acetylthioisosorbide-5-mononitrate, 2-acetylthio-isosorbide-5-mononitrate]	34.33 ± 0.68	significantly reduce the intraocular pressure	24.72 ± 0.47	23.86 ± 0.32	0.2 ± 0.1	also reduced	2/6	1/6	significant reduction	10 ± 2
O=[N+]([O-])O[C@@H]1CO[C@H]2[C@@H]1OC[C@@H]2O [IS-5-MN, isosorbide-5-mononitrate, reference compound]					0.5 ± 0.1		3/6	3/6		19 ± 4
CC(C)(C)NC[C@H](O)COc1nsnc1N1CCOCC1 [Timolol, reference compound]	34.45 ± 0.58		24.77 ± 0.26	24.54 ± 0.26						
